Patent US20230113802A1, “COMPOSITION AND METHOD TO PREPARE LONG-ACTING INJECTABLE SUSPENSION CONTAINING MULTIPLE CANCER DRUGS” (University of Washington, priority 2020, published 2023)

Assay: Pharmacokinetic study of GT in DcNPs compared to CrEL (Example 2), plasma G, T and dFdU
Type: in vivo, BALB/c mice
Text: Drugs extracted from biological matrices such as plasma or tissue homogenates were quantified by a Shimadzu HPLC system coupled to a 3200 QTRAP mass spectrometer (Applied Biosystems, Grand Island, N.Y.). The HPLC system consisted of two Shimadzu LC-20A pumps, a DGU-20A5 degasser, and a Shimadzu SIL-20AC HT autosampler. The mass spectrometer was equipped with an electrospray ionization (ESI) TurbolonSpray source. The system was operated with Analyst software, version 1.5.2 (ABSciex, Framingham, Mass.). Chromatographic separation of G and T was achieved using a Synergi column (100×2.0 mm; 4-μm particle size) (Phenomenex, Torrance, Calif.) with an inline C8 guard column (4.0×2.0 mm) also from Phenomenex. The flow rate was set to 0.5 mL/min with a 5 μl sample injection volume. The mobile phase for separation consisted of pump A (20 mM Ammonium Acetate in water) and B (Reagent Alcohol). […] The needle was washed with isopropanol after each injection. Analytes were monitored using multiple-reaction monitoring (MRM) for positive ions.
Statistical comparisons were performed using 2-sided t-tests with Welch's correction for unequal variances. Significance probability α was set at 0.05. Pharmacokinetic parameters from non-compartmental analysis were calculated using the trapezoidal rule and relevant pharmacokinetic equations shown in Table 3.

- plasma dFdU times higher than G at 3 hours (CrEL control dosage form): 50 times
- plasma dFdU times lower than G at 3 hours (GT DcNP dosage form): 3.4 times
- plasma concentration within 15 minutes (after GT in CrEL control dosage form IV, mice): 11836.7 ng/mL
- concentration at 3 h (female, BALB/c, mouse, plasma, intravenous, after control CrEL dosing, 50/5 mg/kg G/T IV, mice): 4340 ng/mL
Structure (SMILES): O=c1ccn([C@@H]2O[C@H](CO)[C@@H](O)C2(F)F)c(=O)[nH]1 [dFdU, 2′,2′-difluoro-deoxyuridine]
